US11306063B2, “Heterocyclic naphthoquinones derivatives for use in the treatment of cancers including Cushing disease” (Commissariat a l'Energie Atomique et aux Energies …, priority 2016, dated 2022)
Where two headings read alike, the source gives them in different places.

Key:
[1] = molecular target: T1, USP8^CD (purified catalytic domain of USP8) (Homo sapiens, UniProt P40818); assay: Inhibition of purified USP8^CD enzymatic activity (Ub-AMC or Ub-Rho substrate); type: biochemical; settings: for inhibition at 0.01 µM: 0.01 μM compound; for inhibition at 0.05 µM: 0.05 μM compound; for inhibition at 0.1 µM: 0.1 μM compound; for inhibition at 0.5 µM: 0.5 μM compound; for inhibition at 1 µM: 1 μM compound; for inhibition at 5 µM: 5 μM compound; for inhibition at 10 µM: 10 μM compound; for inhibition at 25 µM: 25 μM compound; for inhibition at 50 µM: 50 μM compound; for IC50: read-out: IC50 USP8 CD
T1 construct: the purified catalytic domain of USP8 (USP8^CD, in-house purified); made in house; host or cells: E. coli BL21 Gold
T1 sequence (P40818 777-1109 limits assumed): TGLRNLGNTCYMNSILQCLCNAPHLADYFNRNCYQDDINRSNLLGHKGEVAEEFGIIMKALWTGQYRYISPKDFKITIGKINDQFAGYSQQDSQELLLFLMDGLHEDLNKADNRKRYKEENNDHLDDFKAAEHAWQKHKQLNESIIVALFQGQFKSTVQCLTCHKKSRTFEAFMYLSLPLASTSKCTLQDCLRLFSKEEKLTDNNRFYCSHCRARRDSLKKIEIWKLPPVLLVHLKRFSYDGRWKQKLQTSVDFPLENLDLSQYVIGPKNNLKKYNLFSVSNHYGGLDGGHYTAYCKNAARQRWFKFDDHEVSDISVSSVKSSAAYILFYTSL
Experimental: (§1) USP2CD or USP8CD were expressed in E. coli BL21 Gold. Cells were grown in LB Miller to mid-log phase and induced by addition of 0.5 mM IPTG for USP2CD for 5 h at 20° C., while 1 mM IPTG was added for USP8CD for 3 h at 37° C. Then, cells were harvested and frozen at −80° C.
For His-tagged USP8CD, cells were resuspended in buffer A (50 mM TRIS pH 8.0, 500 mM NaCl, 2 mM Imidazole) and lysed using a sonicator. The lysate was clarified by centrifugation and applied to Ni Sepharose6 Fast Flow resin (GE Healthcare). The resin was sequentially washed first with buffer A containing 10 mM Imidazole then with buffer A containing 20 mM Imidazole, and finally with buffer A containing 50 mM Imidazole. Protein sample was eluted from the resin using buffer A containing 300 mM Imidazole. The eluted protein was buffer exchanged by gel-filtration on a Superdex 200 10/300 GL column (GE Healthcare) equilibrated in Buffer B (20 mM HEPES pH 7.5, 300 mM NaCl, 2 mM dithiothreitol (DTT)).
(§2) Enzymatic assay was performed in a HEPES buffer (50 mM pH7.6 1 mM DTT, 2% glycerol, 0.5 mM EDTA) or in a Tris buffer (40 mM pH7.4 1 mM DTT, 5% glycerol, 0.05 mg/ml BSA) respectively, following manufacturer's instructions. Compounds were added to the reaction mixture just prior to the substrate. The enzymatic reaction kinetics was monitored through the apparition of fluorescence due to the hydrolysis of the peptidyl Ub-AMC or Ub-Rho bound over 20 or 30 minutes.
(§3) Medium value out of duplicates is reported.

[2] = molecular target: T2, USP2^CD (purified catalytic domain of USP2) (Homo sapiens, UniProt O75604); assay: Inhibition of purified USP2^CD enzymatic activity (Ub-AMC or Ub-Rho substrate); type: biochemical; settings: for inhibition at 0.01 µM: 0.01 μM compound; for inhibition at 0.05 µM: 0.05 μM compound; for inhibition at 0.1 µM: 0.1 μM compound; for inhibition at 0.5 µM: 0.5 μM compound; for inhibition at 1 µM: 1 μM compound; for inhibition at 5 µM: 5 μM compound; for inhibition at 10 µM: 10 μM compound; for inhibition at 25 µM: 25 μM compound; for inhibition at 50 µM: 50 μM compound; for IC50: read-out: IC50 USP2 CD
T2 construct: The purified catalytic domain of USP2 (USP2^CD, in-house purified); His; made in house; host or cells: E. coli BL21 Gold
T2 sequence (O75604 267-599 limits assumed): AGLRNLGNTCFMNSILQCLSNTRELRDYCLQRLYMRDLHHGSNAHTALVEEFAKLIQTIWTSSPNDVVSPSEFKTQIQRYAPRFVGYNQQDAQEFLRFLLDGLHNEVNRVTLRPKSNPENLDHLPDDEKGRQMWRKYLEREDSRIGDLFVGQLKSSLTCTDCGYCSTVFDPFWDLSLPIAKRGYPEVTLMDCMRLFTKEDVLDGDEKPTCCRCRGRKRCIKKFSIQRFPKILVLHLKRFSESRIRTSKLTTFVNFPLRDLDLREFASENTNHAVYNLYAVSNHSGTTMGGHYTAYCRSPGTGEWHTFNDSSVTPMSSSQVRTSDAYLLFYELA
Experimental: as §1
For His-tagged USP2CD, cells were resuspended in buffer C (10 mM TRIS pH 8.0, 100 mM NaCl, 10 mM Imidazole) and lysed using a sonicator. The lysate was clarified by centrifugation and applied to Ni Sepharose6 Fast Flow resin (GE Healthcare). The resin was sequentially washed with buffer C, then with buffer C containing 50 mM Imidazole. Protein sample was eluted from the resin using buffer C containing 250 mM Imidazole. The eluted protein was buffer exchanged by gel-filtration on a Superdex 200 10/300 GL column (GE Healthcare) equilibrated in Buffer D (15 mM Bis-TRIS pH 6.0, 100 mM NaCl, 1 mM dithiothreitol (DTT)).
as §2, §3

[3] = Ub-AMC substrate at 1 μM, Table 2b
[4] = Ub-Rhodamine substrate at 0.1 μM, Table 2c

COc1ccc(S(=O)(=O)Cc2nc3c(nc2CS(=O)(=O)c2ccc(OC)cc2)C(=O)c2ccccc2C3=O)cc1 [PCR7994]
inhibition at 0.01 µM ([1]; Table 1d): -7% | inhibition at 0.05 µM ([1]; Table 1d): -13% | inhibition at 0.1 µM ([1]; Table 1d): -23% | inhibition at 0.5 µM ([1]; Table 1d): 18% | inhibition at 1 µM ([1]; Table 1b): 62% | inhibition at 1 µM ([1]; Table 1d): 31% | inhibition at 5 µM ([1]; Table 1b): 68% | inhibition at 5 µM ([1]; Table 1d): 52% | inhibition at 10 µM ([1]; Table 1d): 73% | inhibition at 25 µM ([1]; Table 1b): 91% | inhibition at 50 µM ([1]; Table 1b): 100% | IC50 [1, 3]: 5000 nM | inhibition at 0.01 µM ([2]; Table 1c): -8% | inhibition at 0.05 µM ([2]; Table 1c): -12% | inhibition at 0.1 µM ([2]; Table 1c): 2% | inhibition at 0.5 µM ([2]; Table 1c): 26% | inhibition at 1 µM ([2]; Table 1b): -9% | inhibition at 1 µM ([2]; Table 1c): 5% | inhibition at 5 µM ([2]; Table 1b): 22% | inhibition at 5 µM ([2]; Table 1c): 8% | inhibition at 10 µM ([2]; Table 1c): 17% | inhibition at 25 µM ([2]; Table 1b): 53% | inhibition at 50 µM ([2]; Table 1b): 50% | IC50 [2, 3]: > 10000 nM

O=C1c2ccccc2C(=O)c2nc(CS(=O)(=O)c3cccc(Cl)c3)c(CS(=O)(=O)c3cccc(Cl)c3)nc21 [OVM15]
inhibition at 0.01 µM ([1]; Table 1d): 24% | inhibition at 0.05 µM ([1]; Table 1d): 16% | inhibition at 0.1 µM ([1]; Table 1d): 14% | inhibition at 0.5 µM ([1]; Table 1d): 18% | inhibition at 1 µM ([1]; Table 1b): 68% | inhibition at 1 µM ([1]; Table 1d): 64% | inhibition at 5 µM ([1]; Table 1b): 51% | inhibition at 5 µM ([1]; Table 1d): 52% | inhibition at 10 µM ([1]; Table 1d): 51% | inhibition at 25 µM ([1]; Table 1b): 70% | inhibition at 50 µM ([1]; Table 1b): 83% | IC50 [1, 3]: 400 nM | IC50 [1, 4]: 400 nM | inhibition at 0.01 µM ([2]; Table 1c): 19% | inhibition at 0.05 µM ([2]; Table 1c): 3% | inhibition at 0.1 µM ([2]; Table 1c): 3% | inhibition at 0.5 µM ([2]; Table 1c): 23% | inhibition at 1 µM ([2]; Table 1b): 0% | inhibition at 1 µM ([2]; Table 1c): 37% | inhibition at 5 µM ([2]; Table 1b): 1% | inhibition at 5 µM ([2]; Table 1c): -10% | inhibition at 10 µM ([2]; Table 1c): 17% | inhibition at 25 µM ([2]; Table 1b): 16% | inhibition at 50 µM ([2]; Table 1b): 30% | IC50 [2, 3]: > 10000 nM

O=C1c2ccccc2C(=O)c2nc(CS(=O)(=O)c3ccc4c(c3)OCCO4)c(CS(=O)(=O)c3ccc4c(c3)OCCO4)nc21 [OVM19]
inhibition at 0.01 µM ([1]; Table 1d): -22% | inhibition at 0.05 µM ([1]; Table 1d): -5% | inhibition at 0.1 µM ([1]; Table 1d): -9% | inhibition at 0.5 µM ([1]; Table 1d): 17% | inhibition at 1 µM ([1]; Table 1b): 53% | inhibition at 1 µM ([1]; Table 1d): 44% | inhibition at 5 µM ([1]; Table 1b): 61% | inhibition at 5 µM ([1]; Table 1d): 46% | inhibition at 10 µM ([1]; Table 1d): 54% | inhibition at 25 µM ([1]; Table 1b): 76% | inhibition at 50 µM ([1]; Table 1b): 77% | IC50 [1, 3]: 7500 nM | inhibition at 0.01 µM ([2]; Table 1c): -19% | inhibition at 0.05 µM ([2]; Table 1c): -14% | inhibition at 0.1 µM ([2]; Table 1c): 13% | inhibition at 0.5 µM ([2]; Table 1c): -1% | inhibition at 1 µM ([2]; Table 1b): 20% | inhibition at 1 µM ([2]; Table 1c): 9% | inhibition at 5 µM ([2]; Table 1b): 25% | inhibition at 5 µM ([2]; Table 1c): -3% | inhibition at 10 µM ([2]; Table 1c): 11% | inhibition at 25 µM ([2]; Table 1b): 21% | inhibition at 50 µM ([2]; Table 1b): 18% | IC50 [2, 3]: > 10000 nM

CS(=O)(=O)Cc1nc2c(nc1CS(C)(=O)=O)C(=O)c1ccccc1C2=O [VIN6076]
inhibition at 0.01 µM ([1]; Table 1d): 27% | inhibition at 0.05 µM ([1]; Table 1d): 14% | inhibition at 0.1 µM ([1]; Table 1d): 30% | inhibition at 0.5 µM ([1]; Table 1d): 47% | inhibition at 1 µM ([1]; Table 1b): 77% | inhibition at 1 µM ([1]; Table 1d): 85% | inhibition at 5 µM ([1]; Table 1b): 100% | inhibition at 5 µM ([1]; Table 1d): 90% | inhibition at 10 µM ([1]; Table 1d): 98% | inhibition at 25 µM ([1]; Table 1b): 106% | inhibition at 50 µM ([1]; Table 1b): 103% | IC50 [1, 3]: 500 nM | IC50 [1, 4]: 10 nM | inhibition at 0.01 µM ([2]; Table 1c): 17% | inhibition at 0.05 µM ([2]; Table 1c): -7% | inhibition at 0.1 µM ([2]; Table 1c): 4% | inhibition at 0.5 µM ([2]; Table 1c): 6% | inhibition at 1 µM ([2]; Table 1b): 23% | inhibition at 1 µM ([2]; Table 1c): 57% | inhibition at 5 µM ([2]; Table 1b): 66% | inhibition at 5 µM ([2]; Table 1c): 19% | inhibition at 10 µM ([2]; Table 1c): 56% | inhibition at 25 µM ([2]; Table 1b): 95% | inhibition at 50 µM ([2]; Table 1b): 97% | IC50 [2, 3]: > 10000 nM | IC50 [2, 4]: 650 nM
